Assays:
[1] = system: OVCAR-5 human ovarian cancer cells; test: OVCAR-5 cell growth (Cell Titer-Glo) with chemotherapy agents with or without dexamethasone and relacorilant; assay type: cell-based; settings: for IC50 (decrease in IC50 of the agent from dexamethasone-alone to relacorilant + dexamethasone) / Max effect (increase in maximal cell toxicity of the agent from dexamethasone-alone to relacorilant + dexamethasone): OVCAR-5, 100 nM dexamethasone, 300 nM relacorilant; for Max effect (increase in maximal cell toxicity of the agent from dexamethasone-alone to relacorilant + dexamethasone): high doses of chemotherapeutic
Experimental: The initial cell density was chosen to be low enough to allow for several population doublings (typically 3 to 5) during the indicated incubation period. […] After 48 hours of incubation, serially diluted test agents in growth medium were added to each well. After 72 hours of culture, the plated cells and Cell Titer-Glo® (Promega G7571) reagents were brought to room temperature to equilibrate for 30 minutes. 200 μL of Cell Titer-Glo® reagent was then added to each well, the plate was shaken for two minutes, and then left to equilibrate for ten minutes. The Cell Titer-Glo® cell viability assay uses ATP levels to determine cell numbers. After this equilibration, luminescence was read on the Biotech Synergy II microplate reader. The percent control (% C) of cell growth for each test concentration was calculated relative to untreated wells. All tests were performed in quadruplicate. Individual assay plates were evaluated for appropriate signal and well-to-well variance in the control wells for quality control.

[2] = system: whole blood gene expression; test: Whole blood gene expression after 28 days of enzalutamide in cancer patients; assay type: in vivo; settings: human cancer patients, all p-values greater than 0.5
Text: Enzalutamide is an androgen receptor antagonist used in the treatment of hormone-sensitive cancers such as prostate cancer. […] The small circular markers indicate the change in gene expression for individual genes. None of the gene expression levels changes following enzalutamide (as compared to baseline levels) reach significance (all p-values are greater than 0.5).

[3] = system: MIA PaCa-2 xenograft; test: MIA PaCa-2 xenograft tumor growth in immunodeficient mice; assay type: in vivo; settings: single agent
Text: The present example, Example 3, provides results of administration of the glucocorticoid receptor modulator relacorilant to cancerous cells. […] The MIA PaCa-2 xenograft model uses MIA PaCa-2 cell-line cells (pancreatic tumor cells derived from a pancreatic adenocarcinoma from a patient) engrafted into immunodeficient mice. The ovarian OVCAR-5 cell line is derived from a human epithelial carcinoma of the ovary, and was established from ascitic fluid obtained (prior to cytotoxic treatment) from a patient with progressive ovarian adenocarcinoma.
FIG. 10A. Relacorilant sensitizes the MIA PaCa-2 xenograft to paclitaxel. Tumor volume of PaCa-2 xenograft tumors implanted in immunodeficient mice is shown as a function of time (days) after implantation in the presence of vehicle (filled circles), paclitaxel (7.5 mg/kg; filled squares), relacorilant alone (upwardly pointing triangles), and relacorilant+7.5 mg/kg paclitaxel (downwardly pointing triangles). 7.5 mg/kg paclitaxel was administered three times (at the days indicated by the dashed vertical lines, indicating days 8, 12, and 16 following tumor implantation into the mice).
FIG. 10B. Relacorilant with Paclitaxel Reduces MIA PaCa-2 xenograft Tumor Volume. Initial tumor volume of PaCa-2 xenograft tumors implanted in immunodeficient mice was less than 400 cubic millimeters (mm^3). […] Tumor size progression is thus indicated by lines descending from the top (100%) value. The tumor-bearing mice were treated with vehicle, relacorilant (30 mg/kg every day), paclitaxel (three doses of 7.5 mg/kg paclitaxel, one dose administered on each of the days indicated in FIG. 10A), and the combination relacorilant (30 mg/kg every day) with paclitaxel (7.5 mg/kg doses of paclitaxel each administered on days 8, 12, and 16 post implantation). […] Xenograft tumor growth was slowed by combined relacorilant+paclitaxel as compared to either paclitaxel alone or relacorilant alone. Relacorilant thus enhanced sensitivity to paclitaxel in the pancreatic MIA PaCa-2 xenograft model.

Row | Structure (SMILES) | IC50 (decrease in IC50 of the agent from dexamethasone-alone to relacorilant + dexamethasone) [1] | Max effect (increase in maximal cell toxicity of the agent from dexamethasone-alone to relacorilant + dexamethasone) [1] | other results
1 | N.N.O=C([O-])C1(C(=O)[O-])CCC1.[Pt+2] [carboplatin] |  |  | cell viability ([1]; OVCAR-5 with 100 nM dexamethasone, 1 nM to 2187 nM carboplatin): dose dependent
2 | O=C(c1cc(Cc2n[nH]c(=O)c3ccccc23)ccc1F)N1CCN(C(=O)C2CC2)CC1 [Olaparib] | − | − | 
3 | C=C1C[C@@H]2CC[C@@]34C[C@H]5O[C@H]6[C@@H](O3)[C@H]3O[C@H](CC[C@@H]3O[C@H]6[C@H]5O4)CC(=O)C[C@@H]3[C@@H](OC)[C@@H](C[C@H](O)CN)O[C@H]3C[C@H]3O[C@@H](CC[C@@H]1O2)C[C@@H](C)C3=C [Eribulin] | ++ (>60% decrease in IC50 from the dexamethasone-alone to the relacorilant + dexamethasone treatments) |  | 
4 | CC1(C)CCC(CN2CCN(c3ccc(C(=O)NS(=O)(=O)c4ccc(NCC5CCOCC5)c([N+](=O)[O-])c4)c(Oc4cnc5[nH]ccc5c4)c3)CC2)=C(c2ccc(Cl)cc2)C1 [Venetoclax] | + (~10-59% decrease in IC50 from the dexamethasone-alone to the relacorilant + dexamethasone treatments) | − | 
5 | O=C(O)c1ccc(-c2c[nH]c3ncc(-c4ccccc4)cc23)cc1C1CCCC1 [GSK650394] | − | − | 
6 | CC(=O)Nc1cccc(-n2c(=O)n(C3CC3)c(=O)c3c(Nc4ccc(I)cc4F)n(C)c(=O)c(C)c32)c1 [Trametinib] | − | − | 
7 | CNC(=O)c1ccc(N2C(=S)N(c3ccc(C#N)c(C(F)(F)F)c3)C(=O)C2(C)C)cc1F [enzalutamide] |  |  | changes in gene expression levels compared to baseline [2]: did not result in any significant changes
8 | COc1cccc2c1C(=O)c1c(O)c3c(c(O)c1C2=O)C[C@@](O)(C(=O)CO)C[C@@H]3O[C@H]1C[C@H](N)[C@H](O)[C@H](C)O1 [Doxorubicin] | + (~10-59% decrease in IC50 from the dexamethasone-alone to the relacorilant + dexamethasone treatments) |  | 
9 | COc1cc([C@@H]2c3cc4c(cc3[C@@H](O[C@@H]3O[C@@H]5CO[C@@H](C)O[C@H]5[C@H](O)[C@H]3O)[C@H]3COC(=O)[C@H]23)OCO4)cc(OC)c1O [Etoposide] | + (~10-59% decrease in IC50 from the dexamethasone-alone to the relacorilant + dexamethasone treatments) | − | 
10 | CCN(CC)CCCC(C)Nc1ccnc2cc(Cl)ccc12 (stereo not shown) [Chloroquine] | − |  | 
11 | Nc1nc2[nH]cc(CCc3ccc(C(=O)N[C@@H](CCC(=O)O)C(=O)O)cc3)c2c(=O)[nH]1 [Pemetrexed] | ++ (>60% decrease in IC50 from the dexamethasone-alone to the relacorilant + dexamethasone treatments) |  | 
12 | Cc1c[nH]c(-c2cnc(NCCNc3ccc(C#N)cn3)nc2-c2ccc(Cl)cc2Cl)n1 [CHIR-99021] | − | − | 
13 | CS(=O)(=O)CCNCc1ccc(-c2ccc3ncnc(Nc4ccc(OCc5cccc(F)c5)c(Cl)c4)c3c2)o1 [Lapatinib] | + (~10-59% decrease in IC50 from the dexamethasone-alone to the relacorilant + dexamethasone treatments) | − | 
14 | CC(=O)O[C@H]1C(=O)[C@@]2(C)[C@H]([C@H](OC(=O)c3ccccc3)[C@]3(O)C[C@H](OC(=O)[C@H](O)[C@@H](NC(=O)c4ccccc4)c4ccccc4)C(C)=C1C3(C)C)[C@]1(OC(C)=O)CO[C@@H]1C[C@@H]2O [paclitaxel] |  |  | tumor growth (tumor volume over time) ([3]; paclitaxel 7.5 mg/kg on days 8, 12 and 16): ineffective in delaying tumor growth; time to progression (fraction of tumors whose volume remained below 400 mm^3) ([3]; relacorilant 30 mg/kg every day or paclitaxel 7.5 mg/kg on days 8, 12, 16): ineffective alone in delaying tumor growth
15 | CC(C)(C)c1[nH]cnc1/C=c1\[nH]c(=O)/c(=C/c2ccccc2)[nH]c1=O [Plinabulin] | − |  | 
16 | C#Cc1cccc(Nc2ncnc3cc(OCCOC)c(OCCOC)cc23)c1 [Erlotinib] | − |  | 
17 | CCc1c2c(nc3ccc(OC(=O)N4CCC(N5CCCCC5)CC4)cc13)-c1cc3c(c(=O)n1C2)COC(=O)[C@]3(O)CC [Irinotecan] | + (~10-59% decrease in IC50 from the dexamethasone-alone to the relacorilant + dexamethasone treatments) | − | 
18 | O=c1[nH]cc(F)c(=O)[nH]1 [5-FU] | + (~10-59% decrease in IC50 from the dexamethasone-alone to the relacorilant + dexamethasone treatments) | − | 
19 | N.N.[Cl][Pt][Cl] [cisplatin] | + (~10-59% decrease in IC50 from the dexamethasone-alone to the relacorilant + dexamethasone treatments) | + (consistent ~0-40% increase in toxicity at high doses of chemotherapeutic from the dexamethasone-alone to the relacorilant + dexamethasone treatments) | 
20 | CCC1=C[C@@H]2CN(C1)Cc1c([nH]c3ccccc13)[C@@](C(=O)OC)(c1cc3c(cc1OC)N(C)[C@H]1[C@@](O)(C(=O)OC)[C@H](OC(C)=O)[C@]4(CC)C=CCN5CC[C@]31[C@@H]54)C2 [Vinorelbine] | + (~10-59% decrease in IC50 from the dexamethasone-alone to the relacorilant + dexamethasone treatments) |  | 

Reference: patent US11234971B2, “Methods of treating cancer comprising administration of a glucocorticoid receptor modulator and a cancer chemotherapy agent” (Corcept Therapeutics Incorporated, priority 2018, dated 2022)
